Experiments:
Type in all cases: cell-based, human
U251 cells = test: 10-14 day Clonagenicity Assay (MTT), U251; details: for percentage survival relative to the missense, n = 1 / percentage survival relative to the missense, n = 3 / percentage survival relative to the missense, n = 2: U251, clonagenicity assay, dilution point of maximum toxicity; for percentage survival relative to the missense, n = 1: independent experiment n = 1; for percentage survival relative to the missense, n = 3: independent experiment n = 3; for percentage survival relative to the missense, n = 2: independent experiment n = 2; for viability/cytotoxicity in the Clonagenicity Assay: U251, 10-14 days post transfection, MTT, FIG. 35
Text: (§1) The Clonagenicity Assay represents a Cell Viability Screen that allows assessment of a cytotoxic insult at a variety of seed densities of cancer cell lines over an extended period of logarithmic growth, such that the definitive effect of the test substance can be accurately quantified. In this instance, the ‘cytotoxic insult’ to be tested involves the transfection of siRNA Oligomers to knockdown the expression of novel target Kinases and GPCRs as outlined previously. Cell number is quantified 10-14 days post siRNA transfection by MTT conversion as described in detail in Example 6.
(§2) The Clonagenicity Assay is optimised for each cell line examined with respect to seed number. The seed number varies for each cell line and accounts for the differences in cell size, growth rate and sensitivity to transfection-induced toxicity for each cell line pursued. Cells lines given as models for this example include HCT15, MCF7, A549, SKOV3, DU145, U251, PC3, A498 and HeLa. The siRNA oligo to Survivin serves as a positive control for toxicity in this assay and the missense control oligomer acts as a negative control as described in detail in Examples 5 and 6. The c-Raf, BCL2 and PI3K siRNA oligomers serve as additional controls as previously mentioned. The Clonagenicity assay is performed as outlined below.
(§3) Cells are seeded into a 96-well plate as described below and allowed to adhere overnight at 37° C. in a humidified atmosphere containing 5% CO2 in air. Wells are seeded with an appropriate cell number (cell line dependent) in Column 1 of the 96 well plates and this cell suspension is diluted 1 in 2 across the 96 well plates from Column 1 through to 6 (represented on the x-axis in results). Cells are next transfected with siRNA Oligomers, at a concentration of 2 μg/ml, against the genes of interest. Transfections continue for 4 hrs after which the transfection solution is removed and cells are refed with fresh medium and allow to incubate overnight. An additional media change@24 hrs post transfection is made to minimise toxicity of the transfection reagent. Cells are subsequently incubated for a 10-14 Day period post transfection at a 37° C. incubation as described above. Medium is renewed weekly following which MTT quantification is performed as described in Example 5.
Note seed density decreases from 3.5 to 0.1×10^3 cells on the x-axis and the y-axis represents cell number as quantified by MTT conversion, 10-14 days post transfection. This decrease is substantially greater that with the apoptosis gene, Survivin. […] Note seed density decreases from 3.5 to 0.1×10^3 cells on the x-axis and the y-axis represents cell number as quantified by MTT conversion, 10-14 days post transfection.
(§4) To be considered cytotoxic, the siRNA Oligo against the gene target must induce a decreased viability in a cell line across at least 2 seed densities in the clonagenicity assay, such that a significant difference between the target gene and MS is observed i.e. no crossing of the Standard Error bars is detected. The average percentage viability, relative to missense, is recorded for the dilution point at which Maximum Toxicity is induced is recorded in Table 13.
(§5) Table 13 Clonagenicity Assay—This table gives the average percentage survival of the indicated cell lines relative to the missense in a clonagenicity assay, over 3 independent experiments. As an internal reference, the known survival gene ‘Survivin’, BCL2, c-Raf and PI3KR1 was also targeted by siRNA. When no Cytotoxic response is detected ‘-’ is recorded.

A498 cells = test: 10-14 day Clonagenicity Assay (MTT), A498; details: for percentage survival relative to the missense, n = 1: independent experiment n = 1, dilution point of maximum toxicity; for percentage survival relative to the missense, n = 3: independent experiment n = 3, dilution point of maximum toxicity
Text: as §1, §2, §3, §4, §5

SKOV3 cells = test: 10-14 day Clonagenicity Assay (MTT), SKOV3; details: for percentage survival relative to the missense, n = 1: independent experiment n = 1, dilution point of maximum toxicity; for percentage survival relative to the missense, n = 3: independent experiment n = 3, dilution point of maximum toxicity
Text: as §1, §2, §3, §4, §5

HCT15 cells [1] = test: 10-14 day Clonagenicity Assay (MTT), HCT15; details: independent experiment n = 1, dilution point of maximum toxicity
Text: as §1, §2, §3, §4, §5

DU145 cells = test: 10-14 day Clonagenicity Assay (MTT), DU145; details: for percentage survival relative to the missense, n = 1: independent experiment n = 1, dilution point of maximum toxicity; for percentage survival relative to the missense, n = 2: independent experiment n = 2, dilution point of maximum toxicity; for percentage survival relative to the missense, n = 3: independent experiment n = 3, dilution point of maximum toxicity
Text: as §1, §2, §3, §4, §5

A549 cells [2] = test: 10-14 day Clonagenicity Assay (MTT), A549; details: for percentage survival relative to the missense, n = 1: independent experiment n = 1, dilution point of maximum toxicity; for percentage survival relative to the missense, n = 3: independent experiment n = 3, dilution point of maximum toxicity
Text: as §1, §2, §3, §4, §5

PC3 cells = test: 10-14 day Clonagenicity Assay (MTT), PC3; details: independent experiment n = 3, dilution point of maximum toxicity
Text: as §1, §2, §3, §4, §5

HCT15 cells [3] = test: Anchorage Independence/Soft Agar Assay, HCT15; parameters: PERCENTAGE SURVIVAL RELATIVE TO MS, HCT15, n = 2: tested at 2 µg; PERCENTAGE SURVIVAL RELATIVE TO MS, HCT15, n = 1: tested at 2 µg siRNA; details: soft agar
Procedure: (§6) The Anchorage Independence/Soft Agar Assay allows assessment of the influence of modulation of gene expression on clonal tumouroid formation by observing and quantifying tumouroid morphology and colony number over an extended period of logarithmic growth thereby ascertaining any cell death is induced.
(§7) Cells are seeded into a 6-well plate and allowed to adhere overnight at 37° C. in a humidified atmosphere containing 5% CO2 in air. Cells are next transfected with siRNA Oligomers, at a concentration of 2 μg, against the genes of interest. Transfections continued for 4 hrs after which the transfection solution is removed and cells are refed with fresh medium and allowed incubate overnight. Transfected cells are next harvested for seeding into soft agar assay as described below. Cells are seeded at 5×10^4 cells per well of a 6 well plate and incubated over a 12/14-Day period whilst proliferating in a 0.05% Agar/Medium cell suspension at 37° C. in a humidified atmosphere containing 5% CO2 in air. Colonies formed are subsequently stained with Crystal Violet, their morphology is assessed and colonies formed are enumerated at a 4× magnification.
(§8) The cytotoxic effect of each gene is determined by a reduction in colony number compared to our MS control, but any influence on the morphology of the colony is also noted.
(§9) Examples of genes with a cytotoxic effect on knockdown as detected by the soft agar assay are outlined in Table 14. Table 14 gives the percentage survival of the indicated cell lines post transfection with siRNA oligomers to target genes relative to that of the missense in an anchorage independent assay. As an internal reference, the known survival gene Survivin was also targeted by siRNA. This table illustrates the magnitude of cytotoxicity induced by the knockdown of each target gene compared to the MS control i.e. the number of colonies formed are stained with Crystal violet and enumerated visually as discussed.

A549 cells [4] = test: Anchorage Independence/Soft Agar Assay, A549; parameters: PERCENTAGE SURVIVAL RELATIVE TO MS, A549, n = 2: tested at 2 µg; details: soft agar
Procedure: as §6, §7, §8, §9

MCF7 cells = test: Anchorage Independence/Soft Agar Assay, MCF7; parameters: PERCENTAGE SURVIVAL RELATIVE TO MS, MCF7, n = 2: tested at 2 µg; details: soft agar
Procedure: as §6, §7, §8, §9

[5] = independent experiment n = 2, dilution point of maximum toxicity

| Substance | percentage survival relative to the missense, n = 1 (U251 cells) [%] | percentage survival relative to the missense, n = 3 (U251 cells) [%] | percentage survival relative to the missense, n = 1 (A498 cells) [%] | percentage survival relative to the missense, n = 3 (A498 cells) [%] | percentage survival relative to the missense, n = 1 (SKOV3 cells) [%] | percentage survival relative to the missense, n = 3 (SKOV3 cells) [%] | percentage survival relative to the missense, n = 3 (DU145 cells) [%] | percentage survival relative to the missense, n = 1 (A549 cells [2]) [%] | percentage survival relative to the missense, n = 3 (A549 cells [2]) [%] | percentage survival relative to the missense, n = 3 (PC3 cells) [%] | percentage survival relative to the missense, n = 2 (U251 cells) [%] | further results |
| --- | --- | --- | --- | --- | --- | --- | --- | --- | --- | --- | --- | --- |
| CNK/PRK (sense UCGUAGUGCUUGUACUUACtt; antisense GUAAGUACAAGCACUACGAtt; as printed in the source, key not given here) | 48.8 | 44.5 | 9.5 | 7.2 | 13.8 | 50.1 | 16.8 | – | – | – | – | percentage survival relative to the missense, n = 1 (HCT15 cells [1]): 75.9%; percentage survival relative to the missense, n = 1 (DU145 cells): 46.1%; percentage survival relative to the missense, n = 2 (DU145 cells): 39% |
| CNK/PRK SEQ 2 (sense CAGAAAGACUGUGCACUACTT; antisense GUAGUGCACAGUCUUUCUGTT; chemistry not given here) | 35.2 | 57.5 | 20 | 8.2 | 65.7 | 72.2 | – | 62.5 | 25.6 | 28.3 | – | – |
| MKNK SEQ 2 (sense AUUGCAAGGAGGUUCCAUCTT; antisense GAUGGAACCUCCUUGCAAUTT; chemistry not given here) | – | 52.1 | 56.2 | 6 | – | 47.6 | 53.6 | – | 54.8 | 39.5 | 43.6 | – |
| MPSK1 SEQ 2 (sense GCCGACAUGCAUCGCCUCUTT; antisense AGAGGCGAUGCAUGUCGGCTT; chemistry not given here) | – | 59.3 | 39.3 | 8.9 | – | 73.8 | 63.4 | 39.1 | 26.1 | 16.7 | – | – |
| PSKH1 SEQ 2 (sense UUGGCCGAGGCAGCUUCAGTT; antisense CUGAAGCUGCCUCGGCCAATT; chemistry not given here) | 52.1 | 34.1 | 36 | 6 | 42.3 | 45.1 | 35.2 | 52.3 | 28 | 21.8 | 50.7 | – |
| siRNA FLJ13351: sense CACCAAUUAGUUCAAAGCUtt, antisense AGCUUUGAACUAAUUGGUGtt (sense CACCAAUUAGUUCAAAGCUTT; antisense AGCUUUGAACUAAUUGGUGTT; chemistry not given here) | – | – | – | – | – | – | – | – | – | – | – | viability/cytotoxicity in the Clonagenicity Assay (U251 cells): does not induce cytotoxicity |
| siRNA PI3KR1: control siRNA, sense AUGAUCGAUGUGCACGUUUtt, antisense AAACGUGCACAUCGAUCAUtt (sense AUGAUCGAUGUGCACGUUUTT; antisense AAACGUGCACAUCGAUCAUTT; chemistry not given here) [reference compound] | 56.3 | 21.4 | – | 10 | 55.3 | 41.7 | 44.8 | – | 38.3 | – | – | – |
| siRNA STK6: sense GCCGGUUCAGAAUCAGAAGtt, antisense CUUCUGAUUCUGAACCGGCtt (sense GCCGGUUCAGAAUCAGAAGTT; antisense CUUCUGAUUCUGAACCGGCTT; chemistry not given here) | 12.8 | 25.8 | 18.5 | 32.6 | 10.2 | 37.2 | 34.8 | 56.8 | 31.6 | – | 51.5 | percentage survival relative to the missense, n = 2 (A549 cells [2]; [5]): 69.6%; viability/cytotoxicity in the Clonagenicity Assay (U251 cells): decreases viability; percentage survival relative to the missense, n = 2 (SKOV3 cells; [5]): 35.3%; percentage survival relative to the missense, n = 1 (HCT15 cells [1]): 69.6%; percentage survival relative to the missense, n = 1 (DU145 cells): 48.1%; percentage survival relative to the missense, n = 2 (DU145 cells): 45.3% |
| siRNA TLK2B: sense GAUGGCGUGUAGAGAUAAGtt, antisense CUUAUCUCUACACGCCAUCtt (chain 1 GAUGGCGUGUAGAGAUAAGTT; chain 2 CUUAUCUCUACACGCCAUCTT; chemistry not given here) | – | – | – | – | – | – | – | – | – | – | – | PERCENTAGE SURVIVAL RELATIVE TO MS, HCT15, n = 1 (HCT15 cells [3]; experiment n = 1): 67.3%; PERCENTAGE SURVIVAL RELATIVE TO MS, HCT15, n = 2 (HCT15 cells [3]; experiment n = 2): 115.6%; PERCENTAGE SURVIVAL RELATIVE TO MS, A549, n = 1 (A549 cells [4]; experiment n = 1): 65.8%; PERCENTAGE SURVIVAL RELATIVE TO MS, A549, n = 2 (A549 cells [4]; experiment n = 2): 36.7%; PERCENTAGE SURVIVAL RELATIVE TO MS, MCF7, n = 1 (MCF7 cells; experiment n = 1): 83.7%; PERCENTAGE SURVIVAL RELATIVE TO MS, MCF7, n = 2 (MCF7 cells; experiment n = 2): 99.5% |
